Data from patent publication US20100152154A1, “NOVEL PLATINUM COMPOUNDS FOR TREATING CANCER” (priority 2008, published 2010).

What was measured:
Format in all cases: cell-based, human
[1] = test system: HepG2 cells; experiment: In vitro IC50 by MTS assay, HepG2 liver cancer cells; details: HepG2, 48 hr incubation, MTS assay (490 nm)
Experimental: (§1) To Determine the In Vitro IC50 Values on Ten Human Cancer Cell Lines
(§2) HepG2 and PLC/PRF/5 cells are cultured in DMEM medium. Hep3B cells are cultured in MEM medium. NCI-H460 and 786-0 cells are cultured in RPMI 1640 medium. Caki-1, HCT-116, and SK-OV-3 cells are cultured in McCoy's 5A medium. MDA-MB-231 cells are cultured in L15 medium. All cells are cultured in corresponding media supplemented with 10% FBS, at 37° C., 5% CO2, and 95% humidity. All media are purchased from GIBCO.
(§3) CellTiter 96® Aqueous MTS reagent powder (Cat. No. G1112, Promega) Phenazine methosulfate (PMS) (Cat. No. P9625, Sigma)
(§4) Cells are harvested during the logarithmic growth period and counted with hemocytometer. Add 90 μl cell suspensions to 96-well plates (triplicates for each cell concentration), the final cell densities are 2×10^4, 1×10^4, or 5×10^3 cells/well. Prepare a series of drug concentrations for each of JP0916 and cisplatin and dispense 10 μl drug solution in each well (triplicate for each drug concentration). Incubate the plate for 48 hr then measure by MTS assay (490 nm).

[2] = test system: Hep3B cells; experiment: In vitro IC50 by MTS assay, Hep3B liver cancer cells; details: 48 hr incubation, MTS assay (490 nm)
Experimental: as §1, §2, §3, §4

[3] = test system: PC/PRF/5 cells; experiment: In vitro IC50 by MTS assay, PC/PRF/5 liver cancer cells; details: PC/PRF/5, 48 hr incubation, MTS assay (490 nm)
Experimental: as §1, §2, §3, §4

[4] = test system: 786-0 cells; experiment: In vitro IC50 by MTS assay, 786-0 kidney cancer cells; details: 786-0, 48 hr incubation, MTS assay (490 nm)
Experimental: as §1, §2, §3, §4

[5] = test system: Caki-1 cells; experiment: In vitro IC50 by MTS assay, Caki-1 kidney cancer cells; details: Caki-1, 48 hr incubation, MTS assay (490 nm)
Experimental: as §1, §2, §3, §4

[6] = test system: MDA-MB-231 cells; experiment: In vitro IC50 by MTS assay, MDA-MB-231 breast cancer cells; details: MDA-MB-231, 48 hr incubation, MTS assay (490 nm)
Experimental: as §1, §2, §3, §4

[7] = test system: HCT-116 cells; experiment: In vitro IC50 by MTS assay, HCT-116 colon cancer cells; details: HCT-116, 48 hr incubation, MTS assay (490 nm)
Experimental: as §1, §2, §3, §4

[8] = test system: NCI-H460 cells; experiment: In vitro IC50 by MTS assay, NCI-H460 NSCLC cells; details: NCI-H460, 48 hr incubation, MTS assay (490 nm)
Experimental: as §1, §2, §3, §4

[9] = test system: SK-OV-3 cells; experiment: In vitro IC50 by MTS assay, SK-OV-3 ovarian cancer cells; details: SK-OV-3, 48 hr incubation, MTS assay (490 nm)
Experimental: as §1, §2, §3, §4

Substance: cis-diamminedichloroplatinum(II) [Cisplatin]
- IC50 [1]: 25.6 µM
- IC50 [2]: 3.08 µM
- IC50 [3]: 21.8 µM
- IC50 [4]: 3.54 µM
- IC50 [5]: 10.5 µM
- IC50 [6]: 53.2 µM
- IC50 [7]: 10.6 µM
- IC50 [8]: 8.56 µM
- IC50 [9]: 21.6 µM
